US9840478B2 (MERCK SHARP & DOHME CORP., priority 2013, dated 2017)

Tested on: HIV-1 (H9IIIB strain)
Assay: Cell-based HIV infection assay using a reporter (Cell-Based), MT4-GFP cells
Conditions: Human immunodeficiency virus 1, MT4-GFP cells infected with HIV-1 H9IIIB; 50% normal human serum; mean of at least two independent experiments; read-out: Cell-based IP
Summary of the method: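 MT4-GFP cells (HIV LTR-driven GFP) infected 24 h with HIV-1 H9IIIB at low MOI, then washed and plated with compounds in RPMI + 50% normal human serum, 0.4% DMSO final. Green cells counted at 24 and 48 h; R0 = 48 h/24 h ratio, inhibition normalized to DMSO and triple-drug control; IC50 from 4-parameter fit.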

Row | Structure (SMILES) | IC50
1 | COC(=O)N[C@H](C(=O)Nc1cccc(F)c1CC[C@H]1CNC[C@H](C)N1S(C)(=O)=O)[C@@H](c1ccc(Cl)cc1)c1cc(F)cc(F)c1 [Example 200, (βS)-4-chloro-β-(3,5-difluorophenyl)-N-(3-fluoro-2-{2-[(2S,6S)-6-methyl-1-(methylsulfonyl)piperazin-2-yl]ethyl}phenyl)-Nα-(methoxycarbonyl)-L-phenylalaninamide] | 16 nM
2 | COC(=O)N[C@H](C(=O)Nc1cccc(F)c1CC[C@H]1CNC[C@H](C)N1S(=O)(=O)C1CC1)[C@@H](c1ccc(Cl)cc1)c1cc(F)cc(F)c1 [Example 201, (βS)-4-chloro-N-(2-{2-[(2S,6S)-1-(cyclopropylsulfonyl)-6-methylpiperazin-2-yl]ethyl}-3-fluorophenyl)-β-(3,5-difluorophenyl)-Nα-(methoxycarbonyl)-L-phenylalaninamide] | 16 nM
3 | C[C@H]1CNC[C@H](CCc2c(F)cccc2NC(=O)[C@@H](N)[C@@H](Cc2ccc(F)cc2)c2ccc(Cl)cc2)N1S(C)(=O)=O [Example 202, (βS)-4-chloro-β-(4-fluorobenzyl)-N-(3-fluoro-2-{2-[(2S,6S)-6-methyl-1-(methylsulfonyl)piperazin-2-yl]ethyl}phenyl)-L-phenylalaninamide] | 620 nM
4 | C[C@@H]1CNC[C@H](CCc2c(F)cccc2NC(=O)[C@@H](N)[C@H](c2cccc(F)c2)c2cccc(Cl)c2)N1S(=O)(=O)C1CC1 [Example 203, (βR)-3-chloro-N-(2-{2-[(2S,6R)-1-(cyclopropylsulfonyl)-6-methylpiperazin-2-yl]ethyl}-3-fluorophenyl)-β-(3-fluorophenyl)-L-phenylalaninamide] | 620 nM
5 | C[C@@H]1CNC[C@H](CCc2c(F)cccc2NC(=O)[C@@H](N)[C@@H](c2ccc(Cl)cc2)c2cccc(F)c2)N1S(=O)(=O)C1CC1 [Example 204, (βS)-4-chloro-N-(2-{2-[(2S,6R)-1-(cyclopropylsulfonyl)-6-methylpiperazin-2-yl]ethyl}-3-fluorophenyl)-β-(3-fluorophenyl)-L-phenylalaninamide] | 80 nM
6 | CS(=O)(=O)N1[C@@H](CCc2c(F)cccc2NC(=O)[C@@H](N)[C@@H](c2ccc(F)cc2)c2cc(F)cc(F)c2)CNC[C@@H]1C1CC1 [Example 205, (βS)-N-(2-{2-[(2S,6S)-6-cyclopropyl-1-(methylsulfonyl)piperazin-2-yl]ethyl}-3-fluorophenyl)-β-(3,5-difluorophenyl)-4-fluoro-L-phenylalaninamide] | 22 nM
7 | CC(C)[C@H](c1cccc(Cl)c1)[C@H](N)C(=O)Nc1cccc(F)c1CC[C@H]1CNC[C@@H](C)N1S(=O)(=O)c1ccccc1 [Example 206, (βR)-3-chloro-N-(3-fluoro-2-{2-[(2S,6R)-6-methyl-1-(phenylsulfonyl)piperazin-2-yl]ethyl}phenyl)-β-(1-methylethyl)-L-phenylalaninamide] | 480 nM
8 | CC(C)[C@H](c1cccc(Cl)c1)[C@H](N)C(=O)Nc1cccc(F)c1CC[C@H]1CNC[C@H](C)N1S(=O)(=O)c1ccccc1 [Example 207, (βR)-3-chloro-N-(3-fluoro-2-{2-[(2S,6S)-6-methyl-1-(phenylsulfonyl)piperazin-2-yl]ethyl}phenyl)-β-(1-methylethyl)-L-phenylalaninamide] | 760 nM
9 | COC(=O)N[C@H](C(=O)Nc1cccc(F)c1CC[C@H]1CNC[C@@H](C)N1S(=O)(=O)c1ccccc1)[C@@H](c1cccc(Cl)c1)C(C)C [Example 208, (βR)-3-chloro-N-(3-fluoro-2-{2-[(2S,6R)-6-methyl-1-(phenylsulfonyl)piperazin-2-yl]ethyl}phenyl)-Nα-(methoxycarbonyl)-β-(1-methylethyl)-L-phenylalaninamide] | 42 nM
10 | COC(=O)N[C@H](C(=O)Nc1cccc(F)c1CC[C@H]1CNC[C@H](C)N1S(=O)(=O)c1ccccc1)[C@@H](c1cccc(Cl)c1)C(C)C [Example 209, (βR)-3-chloro-N-(3-fluoro-2-{2-[(2S,6S)-6-methyl-1-(phenylsulfonyl)piperazin-2-yl]ethyl}phenyl)-Nα-(methoxycarbonyl)-β-(1-methylethyl)-L-phenylalaninamide] | 77 nM
11 | COC(=O)N[C@H](C(=O)Nc1cncc(F)c1CC[C@H]1CNC[C@H](C)N1S(=O)(=O)C1CC1)[C@@H](c1ccc(F)cc1)c1cc(F)cc(F)c1 [Example 210, (βS)-N-(4-{2-[(2S,6S)-1-(cyclopropylsulfonyl)-6-methylpiperazin-2-yl]ethyl}-5-fluoropyridin-3-yl)-β-(3,5-difluorophenyl)-4-fluoro-Nα-(methoxycarbonyl)-L-phenylalaninamide] | 13 nM
12 | COC(=O)N[C@H](C(=O)Nc1cncc(F)c1CC[C@H]1CNC[C@@H](C)N1S(=O)(=O)C1CC1)[C@@H](c1ccc(F)cc1)c1cc(F)cc(F)c1 [Example 211, (βS)-N-(4-{2-[(2S,6R)-1-(cyclopropylsulfonyl)-6-methylpiperazin-2-yl]ethyl}-5-fluoropyridin-3-yl)-β-(3,5-difluorophenyl)-4-fluoro-Nα-(methoxycarbonyl)-L-phenylalaninamide] | 16 nM
13 | COC(=O)N[C@H](C(=O)Nc1cccc(F)c1CC[C@H]1CNC[C@H](C)N1S(=O)(=O)C1CC1)[C@@H](c1ccc(F)cc1)c1cc(F)cc(F)c1 [Example 212, (βS)-N-(2-{2-[(2S,6S)-1-(cyclopropylsulfonyl)-6-methylpiperazin-2-yl]ethyl}-3-fluorophenyl)-β-(3,5-difluorophenyl)-4-fluoro-Nα-(methoxycarbonyl)-L-phenylalaninamide] | 13 nM
14 | C[C@H]1CNC[C@H](CCc2c(F)cncc2NC(=O)[C@@H](N)[C@@H](c2ccc(Cl)cc2)c2cccc(F)c2)N1S(C)(=O)=O [Example 213, (βS)-4-chloro-N-(5-fluoro-4-{2-[(2S,6S)-6-methyl-1-(methylsulfonyl)piperazin-2-yl]ethyl}pyridin-3-yl)-β-(3-fluorophenyl)-L-phenylalaninamide] | 29 nM
15 | C[C@H]1CNC[C@H](CCc2c(F)cccc2NC(=O)[C@@H](N)[C@@H](c2ccc(F)cc2)c2cc(F)cc(F)c2)N1S(=O)(=O)c1ccc(OC(F)(F)F)cc1 [Example 214, (βS)-β-(3,5-difluorophenyl)-4-fluoro-N-(3-fluoro-2-{2-[(2S,6S)-6-methyl-1-{[4-(trifluoromethoxy)phenyl]sulfonyl}piperazin-2-yl]ethyl}phenyl)-L-phenylalaninamide] | 44 nM
16 | CC(C)[C@H](c1cccc(Cl)c1)[C@H](N)C(=O)Nc1cccc(F)c1CC[C@H]1CNC[C@H](C)N1S(=O)(=O)C1CC1 [Example 215, (βR)-3-chloro-N-(2-{2-[(2S,6S)-1-(cyclopropylsulfonyl)-6-methylpiperazin-2-yl]ethyl}-3-fluorophenyl)-β-(1-methylethyl)-L-phenylalaninamide] | 2500 nM
17 | COC(=O)N[C@H](C(=O)Nc1cccc(F)c1CC[C@H]1CNC[C@H](C)N1S(=O)(=O)C1CC1)[C@@H](c1cccc(Cl)c1)C(C)C [Example 216, (βR)-3-chloro-N-(2-{2-[(2S,6S)-1-(cyclopropylsulfonyl)-6-methylpiperazin-2-yl]ethyl}-3-fluorophenyl)-Nα-(methoxycarbonyl)-β-(1-methylethyl)-L-phenylalaninamide] | 1300 nM
